# Assays:
# [1] = biological target: T1, Adenosine kinase (Homo sapiens, UniProt P55263); assay: Inhibitory concentration against Adenosine Kinase (enzyme)
# [2] = biological target: T1, Adenosine kinase; assay: Inhibitory concentration against Adenosine Kinase (intact cells)
# T1 sequence (P55263 whole entry): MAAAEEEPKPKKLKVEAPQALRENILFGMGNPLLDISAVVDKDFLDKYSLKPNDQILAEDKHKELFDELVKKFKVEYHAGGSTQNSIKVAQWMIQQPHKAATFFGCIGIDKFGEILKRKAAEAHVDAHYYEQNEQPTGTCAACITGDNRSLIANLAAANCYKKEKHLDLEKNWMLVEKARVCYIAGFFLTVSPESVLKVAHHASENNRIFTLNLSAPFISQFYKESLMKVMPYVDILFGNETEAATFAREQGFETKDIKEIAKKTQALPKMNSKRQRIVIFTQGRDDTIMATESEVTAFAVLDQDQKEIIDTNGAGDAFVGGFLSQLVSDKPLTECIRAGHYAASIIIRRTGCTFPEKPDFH
IC50 [1] [nM],IC50 [2] [nM],Structure (SMILES)
350,,CN(C)c1ccc(-c2nc3ncnc(N)c3cc2-c2ccccc2)cc1
183,367,CN(C)c1ccc(-c2cc3c(N)ncnc3nc2-c2ccc(N(C)C)cc2)cc1
70,> 1000,CN(C)c1ccc(-c2nc3ncnc(N)c3cc2-c2cccc(Br)c2)cc1
433,,CN(C)c1ccc(-c2nc3ncnc(N)c3cc2CCc2ccccc2)cc1
200,> 1000,CC(C)Cc1cc2c(N)ncnc2nc1-c1ccc(N(C)C)cc1
20,> 1000,CN(C)c1ccc(-c2nc3ncnc(N)c3cc2-c2ccc(Br)cc2)cc1
> 1000,,COc1cccc(-c2cc3c(N)ncnc3nc2-c2ccc(N(C)C)cc2)c1
45,350,COc1ccc(-c2cc3c(N)ncnc3nc2-c2ccc(N(C)C)cc2)cc1OC
2230,,CN(C)c1ccc(-c2nc3ncnc(N)c3cc2CCCc2ccccc2)cc1
33,225,COc1ccc(-c2cc3c(N)ncnc3nc2-c2ccc(N(C)C)cc2)cc1Br
467,4170,CN(C)c1ccc(-c2cc3c(N)ncnc3nc2-c2ccncc2)cc1
92,,COc1ccc(-c2cc3c(N)ncnc3nc2-c2ccc(N(C)C)cc2)cc1
773,> 10000,CN(C)c1ccc(-c2ccc3c(N)ncnc3n2)cc1
114,650,CN(C)c1ccc(-c2nc3ncnc(N)c3cc2Cc2ccccc2)cc1

# Further lines, the molecule ahead of its results:
Structure (SMILES),IC50 [1] [nM],IC50 [2] [nM]
Cc1ccc(-c2cc3c(N)ncnc3nc2-c2ccsc2)cc1,47,> 1000
COc1ccc(-c2cc3c(N)ncnc3nc2-c2cccs2)cc1OC,38,300
CCCCCc1cc2c(N)ncnc2nc1-c1ccc(N(C)C)cc1,30,700
Cc1ccc(-c2cc3c(N)ncnc3nc2-c2cc3ccccc3o2)cc1,> 1000,
Nc1ncnc2nc(-c3cccs3)c(Cc3cccc(Br)c3)cc12,3.8,650
Cc1ccc(-c2cc3c(N)ncnc3nc2-c2ccc(/C=C/c3ccccn3)cc2)cc1,115,
CCCCc1cc2c(N)ncnc2nc1-c1cccs1,11,767
Cc1ccc(-c2cc3c(N)ncnc3nc2-c2cccs2)cc1,9,800
Nc1ncnc2nc(-c3nccs3)c(Cc3cccc(Br)c3)cc12,900,
Cc1ccc(-c2cc3c(N)ncnc3nc2-c2ccc(-c3cncnc3)cc2)cc1,180,
COc1ccc(-c2cc3c(N)ncnc3nc2-c2cccs2)cc1Br,8,375
CN(C)c1ccc(-c2cnc3c(N)ncnc3n2)cc1,440,

# Reference: ChEMBL document CHEMBL1145276, “Synthesis and biological evaluation of 6,7-disubstituted 4-aminopyrido[2,3-d]pyrimidines as adenosine kinase inhibitors” (Bioorg Med Chem Lett, 2005)
